Measured values from patent US12268674B2, “Mi-2β inhibitor as an immunotherapy agent” (BioVentures, LLC, priority 2021, dated 2025).

Assays:
Format in all cases: binding
[1] = target: T1, ACTR3 (Homo sapiens, UniProt P61158); experiment: ATPase profile (ATP acyl phosphate probe)
T1 construct: to get the native cell lysate; host or cells: A375 cell lysate

[2] = target: T2, AFG3L2 (Homo sapiens, UniProt Q9Y4W6); experiment: ATPase profile (ATP acyl phosphate probe); details: AFG3L2, SEQ ID NO: 29, ATP BS
T2 construct: to get the native cell lysate; host or cells: A375 cell lysate

[3] = target: T3, AK3 (Homo sapiens, UniProt Q9UIJ7); experiment: ATPase profile (ATP acyl phosphate probe); details: AK3, SEQ ID NO: 34, ATP BS
T3 construct: to get the native cell lysate; host or cells: A375 cell lysate

[4] = target: T4, ALDH18A1 (Homo sapiens, UniProt P54886); experiment: ATPase profile (ATP acyl phosphate probe); details: ALDH18A1, SEQ ID NO: 39, ATP BS
T4 construct: to get the native cell lysate; host or cells: A375 cell lysate

[5] = target: T5, CCT2 (Homo sapiens, UniProt P78371); experiment: ATPase profile (ATP acyl phosphate probe); details: CCT2, SEQ ID NO: 51, ATP BS
T5 construct: to get the native cell lysate; host or cells: A375 cell lysate

[6] = target: T6, DDX39 (Homo sapiens, UniProt O00148); experiment: ATPase profile (ATP acyl phosphate probe); details: DDX39, SEQ ID NO: 69, ATP BS
T6 construct: endogenous in cells; host or cells: A375 cell lysate

[7] = target: T7, DHX36 (Homo sapiens, UniProt Q9H2U1); experiment: ATPase profile (ATP acyl phosphate probe); details: DHX36, SEQ ID NO: 73, ATP BS
T7 construct: endogenous in cells; host or cells: A375 cell lysate

[8] = target: T8, HPRT1 (Homo sapiens, UniProt P00492); experiment: ATPase profile (ATP acyl phosphate probe); details: HPRT1, SEQ ID NO: 93, ATP BS
T8 construct: to get the native cell lysate; endogenous in cells; host or cells: A375

[9] = target: T9, HSP90AB1, HSP90AB3P (Homo sapiens, UniProt P08238); experiment: ATPase profile (ATP acyl phosphate probe); details: SEQ ID NO: 98, ATP BS
T9 construct: to get the native cell lysate; endogenous in cells; host or cells: A375

[10] = target: T10, HSPA1A (Homo sapiens, UniProt P0DMV8); experiment: ATPase profile (ATP acyl phosphate probe)
T10 construct: to get the native cell lysate; endogenous in cells; host or cells: A375
T10 sequence (P0DMV8 whole entry): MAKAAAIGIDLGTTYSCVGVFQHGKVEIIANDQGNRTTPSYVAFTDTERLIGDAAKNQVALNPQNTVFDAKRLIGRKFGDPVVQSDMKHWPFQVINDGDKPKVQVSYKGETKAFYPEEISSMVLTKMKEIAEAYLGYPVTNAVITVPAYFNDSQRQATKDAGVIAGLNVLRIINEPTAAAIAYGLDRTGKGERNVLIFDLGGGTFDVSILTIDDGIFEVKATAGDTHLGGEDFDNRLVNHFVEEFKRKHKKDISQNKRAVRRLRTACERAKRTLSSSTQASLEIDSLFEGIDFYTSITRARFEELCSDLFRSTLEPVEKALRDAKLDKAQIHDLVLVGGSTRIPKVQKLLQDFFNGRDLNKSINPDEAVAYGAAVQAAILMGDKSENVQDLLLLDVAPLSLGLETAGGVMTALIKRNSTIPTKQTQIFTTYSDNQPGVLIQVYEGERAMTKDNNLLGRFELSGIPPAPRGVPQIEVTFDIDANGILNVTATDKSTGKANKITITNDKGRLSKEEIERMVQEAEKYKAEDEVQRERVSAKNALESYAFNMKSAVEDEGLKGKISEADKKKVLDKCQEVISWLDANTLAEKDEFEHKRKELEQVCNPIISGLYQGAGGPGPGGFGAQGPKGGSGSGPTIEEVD

[11] = target: T11, HSPA2 (Homo sapiens, UniProt P54652); experiment: ATPase profile (ATP acyl phosphate probe)
T11 construct: to get the native cell lysate; endogenous in cells; host or cells: A375
T11 sequence (P54652 whole entry): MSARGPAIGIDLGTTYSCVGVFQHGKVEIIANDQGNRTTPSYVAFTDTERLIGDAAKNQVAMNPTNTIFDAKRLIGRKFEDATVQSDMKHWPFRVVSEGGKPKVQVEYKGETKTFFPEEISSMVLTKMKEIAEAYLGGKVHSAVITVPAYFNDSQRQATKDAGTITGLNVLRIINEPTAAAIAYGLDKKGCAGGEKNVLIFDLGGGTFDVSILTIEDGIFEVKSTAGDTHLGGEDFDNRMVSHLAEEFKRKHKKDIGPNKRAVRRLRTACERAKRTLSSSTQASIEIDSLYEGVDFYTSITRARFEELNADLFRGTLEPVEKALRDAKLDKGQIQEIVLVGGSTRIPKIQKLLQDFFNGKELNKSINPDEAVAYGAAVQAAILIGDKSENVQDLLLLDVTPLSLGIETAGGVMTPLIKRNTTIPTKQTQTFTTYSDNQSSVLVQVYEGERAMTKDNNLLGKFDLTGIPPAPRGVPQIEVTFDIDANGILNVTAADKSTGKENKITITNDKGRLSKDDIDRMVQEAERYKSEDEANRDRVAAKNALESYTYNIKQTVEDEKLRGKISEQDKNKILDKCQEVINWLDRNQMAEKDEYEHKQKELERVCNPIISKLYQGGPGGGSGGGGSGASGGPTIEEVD

[12] = target: T12, HSPA5 (Homo sapiens, UniProt P11021); experiment: ATPase profile (ATP acyl phosphate probe)
T12 construct: to get the native cell lysate; endogenous in cells; host or cells: A375
T12 sequence (P11021 19-654): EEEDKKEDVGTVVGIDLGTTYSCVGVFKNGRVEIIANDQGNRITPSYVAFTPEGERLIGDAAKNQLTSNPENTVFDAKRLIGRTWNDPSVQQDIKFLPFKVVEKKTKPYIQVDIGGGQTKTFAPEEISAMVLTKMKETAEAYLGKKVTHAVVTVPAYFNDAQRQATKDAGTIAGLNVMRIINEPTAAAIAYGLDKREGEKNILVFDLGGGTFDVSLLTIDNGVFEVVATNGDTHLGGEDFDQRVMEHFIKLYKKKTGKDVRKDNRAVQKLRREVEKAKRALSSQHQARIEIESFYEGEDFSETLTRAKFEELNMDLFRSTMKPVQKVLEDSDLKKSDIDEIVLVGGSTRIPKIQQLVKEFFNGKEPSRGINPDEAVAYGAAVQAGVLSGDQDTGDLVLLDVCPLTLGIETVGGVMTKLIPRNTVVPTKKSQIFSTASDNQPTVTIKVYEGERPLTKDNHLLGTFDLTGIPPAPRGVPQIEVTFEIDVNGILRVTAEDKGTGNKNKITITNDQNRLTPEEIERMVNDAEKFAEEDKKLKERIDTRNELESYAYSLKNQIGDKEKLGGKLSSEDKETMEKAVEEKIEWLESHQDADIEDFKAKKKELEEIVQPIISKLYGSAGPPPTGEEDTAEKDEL

[13] = target: T13, HYOU1 (Homo sapiens, UniProt Q9Y4L1); experiment: ATPase profile (ATP acyl phosphate probe)
T13 construct: to get the native cell lysate; endogenous in cells; host or cells: A375
T13 sequence (Q9Y4L1 33-999): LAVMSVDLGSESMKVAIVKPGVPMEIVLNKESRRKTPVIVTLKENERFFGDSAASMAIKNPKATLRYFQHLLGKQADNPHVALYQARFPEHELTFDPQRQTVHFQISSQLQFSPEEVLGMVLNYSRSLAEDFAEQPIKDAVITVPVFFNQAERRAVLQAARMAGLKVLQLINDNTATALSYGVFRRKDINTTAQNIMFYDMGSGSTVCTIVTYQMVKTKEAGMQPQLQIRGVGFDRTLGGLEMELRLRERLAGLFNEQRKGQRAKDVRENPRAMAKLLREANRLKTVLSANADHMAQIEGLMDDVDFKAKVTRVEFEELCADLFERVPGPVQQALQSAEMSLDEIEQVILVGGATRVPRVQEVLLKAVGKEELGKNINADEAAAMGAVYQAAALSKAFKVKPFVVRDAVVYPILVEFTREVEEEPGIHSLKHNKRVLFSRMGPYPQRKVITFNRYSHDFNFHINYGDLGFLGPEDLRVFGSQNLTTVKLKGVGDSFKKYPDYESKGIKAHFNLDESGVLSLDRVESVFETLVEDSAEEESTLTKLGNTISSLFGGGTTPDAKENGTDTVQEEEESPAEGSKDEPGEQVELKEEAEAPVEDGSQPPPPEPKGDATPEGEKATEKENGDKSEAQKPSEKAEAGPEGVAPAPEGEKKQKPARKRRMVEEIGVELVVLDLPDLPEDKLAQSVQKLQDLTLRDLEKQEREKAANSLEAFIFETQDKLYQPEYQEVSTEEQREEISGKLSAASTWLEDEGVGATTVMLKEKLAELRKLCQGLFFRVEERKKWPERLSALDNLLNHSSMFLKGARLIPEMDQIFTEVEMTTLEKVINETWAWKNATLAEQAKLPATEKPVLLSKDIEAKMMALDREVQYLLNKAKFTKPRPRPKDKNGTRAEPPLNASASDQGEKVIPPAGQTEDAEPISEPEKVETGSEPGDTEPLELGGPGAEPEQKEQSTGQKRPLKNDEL

[14] = target: T14, MCCC1 (Homo sapiens, UniProt Q96RQ3); experiment: ATPase profile (ATP acyl phosphate probe)
T14 construct: to get the native cell lysate; endogenous in cells; host or cells: A375
T14 sequence (Q96RQ3 48-725 limits assumed): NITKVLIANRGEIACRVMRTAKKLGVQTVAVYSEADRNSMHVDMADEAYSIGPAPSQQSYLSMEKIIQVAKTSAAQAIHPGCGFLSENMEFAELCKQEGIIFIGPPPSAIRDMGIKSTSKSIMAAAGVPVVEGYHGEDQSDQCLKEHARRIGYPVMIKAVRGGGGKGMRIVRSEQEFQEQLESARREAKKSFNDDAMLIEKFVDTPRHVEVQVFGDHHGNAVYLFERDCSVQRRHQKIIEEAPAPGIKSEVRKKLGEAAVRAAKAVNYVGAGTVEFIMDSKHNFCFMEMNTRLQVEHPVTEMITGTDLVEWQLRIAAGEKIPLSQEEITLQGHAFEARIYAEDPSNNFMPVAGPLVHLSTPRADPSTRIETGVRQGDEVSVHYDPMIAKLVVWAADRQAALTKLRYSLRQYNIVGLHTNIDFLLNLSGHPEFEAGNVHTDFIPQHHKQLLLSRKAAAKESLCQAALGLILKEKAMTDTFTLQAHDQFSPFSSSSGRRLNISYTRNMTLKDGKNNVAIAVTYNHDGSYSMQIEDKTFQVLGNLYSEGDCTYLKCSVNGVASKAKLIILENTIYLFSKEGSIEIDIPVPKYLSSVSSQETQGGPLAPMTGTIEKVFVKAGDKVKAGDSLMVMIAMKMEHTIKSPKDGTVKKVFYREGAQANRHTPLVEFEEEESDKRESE
T14 sequence (Q9HCC0 23-563 partner): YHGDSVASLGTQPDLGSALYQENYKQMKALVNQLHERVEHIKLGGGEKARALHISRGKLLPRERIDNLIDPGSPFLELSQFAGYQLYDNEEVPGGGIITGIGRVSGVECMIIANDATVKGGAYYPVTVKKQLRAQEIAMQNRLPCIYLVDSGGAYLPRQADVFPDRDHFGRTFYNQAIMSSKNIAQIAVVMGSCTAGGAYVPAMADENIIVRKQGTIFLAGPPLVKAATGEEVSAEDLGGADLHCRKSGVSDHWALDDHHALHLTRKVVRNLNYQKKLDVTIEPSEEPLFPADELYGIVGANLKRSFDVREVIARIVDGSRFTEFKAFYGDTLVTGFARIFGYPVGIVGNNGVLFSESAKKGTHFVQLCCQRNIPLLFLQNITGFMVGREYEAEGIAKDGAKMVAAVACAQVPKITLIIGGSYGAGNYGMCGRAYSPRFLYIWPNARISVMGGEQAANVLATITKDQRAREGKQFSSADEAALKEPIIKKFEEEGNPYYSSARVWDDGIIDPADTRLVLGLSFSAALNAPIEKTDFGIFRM

[15] = tested on: NME1, NME2; experiment: ATPase profile (ATP acyl phosphate probe); details: NME1, NME2, SEQ ID NO: 133, ATP BS
[16] = target: T15, NME3 (Homo sapiens, UniProt Q13232); experiment: ATPase profile (ATP acyl phosphate probe); details: NME3, SEQ ID NO: 134, ATP BS
T15 construct: to get the native cell lysate; endogenous in cells; host or cells: A375

[17] = target: T16, NSF (Homo sapiens, UniProt P46459); experiment: ATPase profile (ATP acyl phosphate probe)
T16 construct: to get the native cell lysate; endogenous in cells; host or cells: A375
T16 sequence (P46459 whole entry): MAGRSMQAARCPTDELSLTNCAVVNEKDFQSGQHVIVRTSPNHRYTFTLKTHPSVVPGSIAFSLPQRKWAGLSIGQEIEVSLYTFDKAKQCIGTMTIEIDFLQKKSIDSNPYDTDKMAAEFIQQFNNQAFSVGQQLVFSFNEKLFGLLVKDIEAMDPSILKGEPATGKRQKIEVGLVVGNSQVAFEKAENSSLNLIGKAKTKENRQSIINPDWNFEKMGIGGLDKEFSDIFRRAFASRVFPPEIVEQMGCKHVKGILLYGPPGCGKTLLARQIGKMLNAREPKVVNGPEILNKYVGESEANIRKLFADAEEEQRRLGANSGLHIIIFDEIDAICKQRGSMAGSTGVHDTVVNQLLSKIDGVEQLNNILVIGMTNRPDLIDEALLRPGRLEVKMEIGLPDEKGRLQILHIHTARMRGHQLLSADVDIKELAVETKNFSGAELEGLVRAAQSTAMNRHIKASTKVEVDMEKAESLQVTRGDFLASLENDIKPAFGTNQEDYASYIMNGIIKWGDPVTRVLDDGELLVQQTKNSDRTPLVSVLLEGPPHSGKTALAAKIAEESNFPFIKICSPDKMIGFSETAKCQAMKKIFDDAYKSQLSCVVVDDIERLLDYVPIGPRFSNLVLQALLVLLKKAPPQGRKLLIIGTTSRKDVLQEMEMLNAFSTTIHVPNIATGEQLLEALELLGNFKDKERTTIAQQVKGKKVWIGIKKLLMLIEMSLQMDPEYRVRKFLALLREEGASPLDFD

[18] = target: T17, NUDT2 (Homo sapiens, UniProt P50583); experiment: ATPase profile (ATP acyl phosphate probe)
T17 construct: to get the native cell lysate; endogenous in cells; host or cells: A375
T17 sequence (P50583 whole entry): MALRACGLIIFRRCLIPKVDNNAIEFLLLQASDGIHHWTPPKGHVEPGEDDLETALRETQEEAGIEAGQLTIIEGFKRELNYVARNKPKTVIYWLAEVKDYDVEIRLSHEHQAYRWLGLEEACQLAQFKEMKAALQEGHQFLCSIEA

[19] = target: T18, PC (Homo sapiens, UniProt P11498); experiment: ATPase profile (ATP acyl phosphate probe); details: SEQ ID NO: 152, ATP BS
T18 construct: to get the native cell lysate; endogenous in cells; host or cells: A375

[20] = target: PSMD9 (Homo sapiens, UniProt O00233); experiment: ATPase profile (ATP acyl phosphate probe); details: PSMD9, SEQ ID NO: 179, ATP BS; read-out: Inhibition (%) by 1 μM Z36-MP5
[21] = target: T19, QARS (Homo sapiens, UniProt P47897); experiment: ATPase profile (ATP acyl phosphate probe); details: SEQ ID NO: 180, ATP BS
T19 construct: to get the native cell lysate; endogenous in cells; host or cells: A375 cell lysate

[22] = target: SARS (Homo sapiens, UniProt P49591); details: SEQ ID NO: 190, ATP BS
[23] = target: T20, SMC1A (Homo sapiens, UniProt Q14683); experiment: ATPase profile (ATP acyl phosphate probe); details: SEQ ID NO: 193, ATP BS
T20 construct: to get the native cell lysate; endogenous in cells; host or cells: A375 cell lysate

[24] = target: T21, SNRNP200 (Homo sapiens, UniProt O75643); experiment: ATPase profile (ATP acyl phosphate probe); details: SNRNP200, SEQ ID NO: 196, ATP BS
T21 construct: to get the native cell lysate; endogenous in cells; host or cells: A375 cell lysate

[25] = target: T22, SUCLA2 (Homo sapiens, UniProt Q9P2R7); experiment: ATPase profile (ATP acyl phosphate probe)
T22 construct: to get the native cell lysate; endogenous in cells; host or cells: A375 cell lysate

[26] = target: T23, TCP1 (Homo sapiens, UniProt P17987); experiment: ATPase profile (ATP acyl phosphate probe); details: TCP1, SEQ ID NO: 200, ATP BS
T23 construct: to get the native cell lysate; endogenous in cells; host or cells: A375 cell lysate

[27] = target: T24, TRA1 (Homo sapiens, UniProt P14625); experiment: ATPase profile (ATP acyl phosphate probe); details: TRA1, SEQ ID NO: 208, ATP BS
T24 construct: to get the native cell lysate; endogenous in cells; host or cells: A375 cell lysate

[28] = target: T25, UBA6 (Homo sapiens, UniProt A0AVT1); experiment: ATPase profile (ATP acyl phosphate probe); details: UBA6, SEQ ID NO: 222, ATP BS
T25 construct: to get the native cell lysate; endogenous in cells; host or cells: A375 cell lysate

[29] = target: T26, XRCC3 (Homo sapiens, UniProt O43542); experiment: ATPase profile (ATP acyl phosphate probe); details: XRCC3, SEQ ID NO: 230, ATP BS
T26 construct: to get the native cell lysate; endogenous in cells; host or cells: A375 cell lysate

Cn1c(=O)[nH]c2ccc(-c3cccc(C(=O)NC4CCn5ccnc5C4)c3)cc21 (centres unmarked) [Z36-MP5, 3-(3-methyl-2-oxo-2,3-dihydro-1H-benzo[d]imidazol-5-yl)-N-(5,6,7,8-tetrahydroimidazo[1,2-a]pyridin-7-yl)benzamide]
Inhibition (%) by 1 μM Z36-MP5 ([1]; ACTR3, SEQ ID NO: 27, ATP BS): 5.36%
Inhibition (%) by 1 μM Z36-MP5 ([1]; ACTR3, SEQ ID NO: 28, ATP BS): −0.28%
Inhibition (%) by 1 μM Z36-MP5 [2]: −4.85%
Inhibition (%) by 1 μM Z36-MP5 [3]: 19.58%
Inhibition (%) by 1 μM Z36-MP5 [4]: −6.95%
Inhibition (%) by 1 μM Z36-MP5 [5]: −6.50%
Inhibition (%) by 1 μM Z36-MP5 [6]: −8.90%
Inhibition (%) by 1 μM Z36-MP5 [7]: −20.12%
Inhibition (%) by 1 μM Z36-MP5 [8]: 12.92%
Inhibition (%) by 1 μM Z36-MP5 [9]: −16.94%
Inhibition (%) by 1 μM Z36-MP5 ([10]; SEQ ID NO: 100, ATP BS): −9.44%
Inhibition (%) by 1 μM Z36-MP5 ([10]; SEQ ID NO: 101, ATP BS): −15.23%
Inhibition (%) by 1 μM Z36-MP5 ([11]; HSPA2, SEQ ID NO: 102, ATP BS): −1.50%
Inhibition (%) by 1 μM Z36-MP5 ([11]; HSPA2, SEQ ID NO: 103, ATP BS): −5.18%
Inhibition (%) by 1 μM Z36-MP5 ([12]; HSPA5, SEQ ID NO: 104, ATP BS): −16.08%
Inhibition (%) by 1 μM Z36-MP5 ([12]; HSPA5, SEQ ID NO: 105, ATP BS): −7.84%
Inhibition (%) by 1 μM Z36-MP5 ([13]; HYOU1, SEQ ID NO: 109, ATP BS): −13.34%
Inhibition (%) by 1 μM Z36-MP5 ([13]; HYOU1, SEQ ID NO: 110, ATP BS): −6.78%
Inhibition (%) by 1 μM Z36-MP5 ([14]; MCCC1, SEQ ID NO: 116, ATP BS): −6.46%
Inhibition (%) by 1 μM Z36-MP5 ([14]; MCCC1, SEQ ID NO: 117, ATP BS): 4.45%
Inhibition (%) by 1 μM Z36-MP5 [15]: −1.52%
Inhibition (%) by 1 μM Z36-MP5 [16]: 1.91%
Inhibition (%) by 1 μM Z36-MP5 ([17]; SEQ ID NO: 138, ATP BS): 6.03%
Inhibition (%) by 1 μM Z36-MP5 ([17]; SEQ ID NO: 139, ATP BS): −6.18%
Inhibition (%) by 1 μM Z36-MP5 ([18]; NUDT2, SEQ ID NO: 145, ATP BS): 19.18%
Inhibition (%) by 1 μM Z36-MP5 ([18]; NUDT2, SEQ ID NO: 146, ATP BS): 11.64%
Inhibition (%) by 1 μM Z36-MP5 [19]: −15.19%
inhibition at 1 µM [20]: 2.13%
Inhibition (%) by 1 μM Z36-MP5 [21]: −7.77%
Inhibition (%) by 1 μM Z36-MP5 [22]: 3.57%
Inhibition (%) by 1 μM Z36-MP5 [23]: 5.67%
Inhibition (%) by 1 μM Z36-MP5 [24]: −14.27%
Inhibition (%) by 1 μM Z36-MP5 ([25]; SUCLA2, SEQ ID NO: 198, ATP BS): −0.65%
Inhibition (%) by 1 μM Z36-MP5 ([25]; SUCLA2, SEQ ID NO: 199, ATP BS): 9.97%
Inhibition (%) by 1 μM Z36-MP5 [26]: 6.76%
Inhibition (%) by 1 μM Z36-MP5 [27]: −8.56%
Inhibition (%) by 1 μM Z36-MP5 [28]: 3.60%
Inhibition (%) by 1 μM Z36-MP5 [29]: −4.81%
